The results in this text go back to ChEMBL document CHEMBL4699514, “Glucose Uptake-Stimulating Galloyl Ester Triterpenoids from Castanopsis sieboldii” (2020).

One assay deals with 3T3-L1. The assay is described as follows: Induction of glucose uptake in mouse 3T3-L1 adipocytes assessed as [3H]2-deoxy-D-glucose uptake incubated for 1 hr followed by [3H]2-deoxy-D-glucose addition by fluorescence microscopic method. The class given is functional. Particulars: read-out: ED50 (the source's name).
For the next assay, the system named is C2C12. The assay is described as follows: Activation of AMPK pathway in mouse C2C12 cells assessed as increase in AMPK phosphorylation at 10 to 20 uM after 60 mins by Western blot analysis. The class given is cell-based. Particulars: filed as activator, dose microM 10-20, time 60.0 min. (In western blotting, separated proteins are transferred to a membrane and probed.)

Active and inactive are the calls of the source. No cut-off for these calls is given here.

Regarding `CC1(C)CC[C@]2(C(=O)O[C@@H]3O[C@H](CO)[C@@H](O)[C@H](O)[C@H]3O)CC[C@]3(C)C(=CC[C@@H]4[C@@]5(C)C[C@@H](O)[C@H](OC(=O)c6cc(O)c(O)c(O)c6)[C@](CO)(COC(=O)c6cc(O)c(O)c(O)c6)[C@@H]5CC[C@]43C)[C@@H]2C1`, the EC50 in the assay on 3T3-L1 turned out to be 12.1 µM. Also, in the assay on C2C12, the outcome was Active.

For the molecule `CC1(C)CC[C@]2(C(=O)O[C@@H]3O[C@H](CO)[C@@H](O)[C@H](O)[C@H]3O)CC[C@]3(C)C(=CC[C@@H]4[C@@]5(C)C[C@@H](O)[C@H](OC(=O)c6cc(O)c(O)c(O)c6)C6(COC(=O)c7cc(O)c(O)c(O)c7-c7c(cc(O)c(O)c7O)C(=O)OC6)[C@@H]5CC[C@]43C)[C@@H]2C1`, the EC50 with 3T3-L1 worked out at 10.6 µM.

Consider `CC1(C)CC[C@]2(C(=O)O)CC[C@]3(C)C(=CC[C@@H]4[C@@]5(C)C[C@@H](O)[C@H](O)C(CO)(CO)[C@@H]5CC[C@]43C)[C@@H]2C1`, for which the EC50 in the assay with 3T3-L1 was found to be 6.89 µM.
